# Counter-ions that a name gives are not always drawn.
# Assay: Phase 1 dose escalation study in healthy post-menopausal women, treatment related AEs
# Type: in vivo
# Protocol: The subjects were 40-75 years old with BMI of 18.0-30 kg/m^2. Subjects having evidence of clinically relevant pathology, increased risk of stroke or of history venous thromboembolic events, or use of concomitant medication less than 14 days prior to admission to clinical research center (paracetamol allowed up to 3 days prior) were excluded. Dosing
# The subjects were treated with placebo or at least one dose p.o., q.d. after a light breakfast for 7 days at dose levels of 200 mg, 500 mg, 750 mg and 1000 mg, respectively.
smiles,measurement,setting,value
"CCNCCc1ccc(CN(CC)c2cc(OC)ccc2[C@@H]2CCc3cc(O)ccc3C2)cc1 [RAD1901, (6R)-6-(2-(N-(4-(2-(ethylamino)ethyl)benzyl)-N-ethylamino)-4-methoxyphenyl)-5,6,7,8-tetrahydronaphthalen-2-ol dihydrochloride]",Dysphagia Gr1,"500 mg, N = 14",1 n(%)
same,Dysphagia Gr2,"500 mg, N = 14",2 (14) n(%)
same,Dysphagia Gr3,"500 mg, N = 14",0 n(%)
same,Flatulance Gr1,"500 mg, N = 14",2 n(%)
same,Flatulance Gr2,"500 mg, N = 14",0 n(%)
same,Flatulance Gr3,"500 mg, N = 14",0 n(%)
same,Headache Gr1,"500 mg, N = 14",1 n(%)
same,Headache Gr2,"500 mg, N = 14",1 (7) n(%)
same,Headache Gr3,"500 mg, N = 14",0 n(%)
same,Hiccups Gr1,"500 mg, N = 14",4 n(%)
same,Hiccups Gr2,"500 mg, N = 14",0 n(%)
same,Hiccups Gr3,"500 mg, N = 14",0 n(%)
same,Hot flush Gr1,"500 mg, N = 14",6 n(%)
same,Hot flush Gr2,"500 mg, N = 14",0 n(%)
same,Hot flush Gr3,"500 mg, N = 14",0 n(%)
same,Myalgia Gr1,"500 mg, N = 14",0 n(%)
same,Myalgia Gr2,"500 mg, N = 14",1 (7) n(%)
same,Myalgia Gr3,"500 mg, N = 14",0 n(%)
same,Nausea Gr1,"500 mg, N = 14",3 n(%)
same,Nausea Gr2,"500 mg, N = 14",2 (14) n(%)
same,Nausea Gr3,"500 mg, N = 14",0 n(%)
same,Odynophagia Gr1,"500 mg, N = 14",1 n(%)
same,Odynophagia Gr2,"500 mg, N = 14",1 (7) n(%)
same,Odynophagia Gr3,"500 mg, N = 14",0 n(%)
same,Oesophageal pain Gr1,"500 mg, N = 14",1 n(%)
same,Oesophageal pain Gr2,"500 mg, N = 14",3 (21) n(%)
same,Oesophageal pain Gr3,"500 mg, N = 14",0 n(%)
same,Salivary hypersecretion Gr1,"500 mg, N = 14",2 n(%)
same,Salivary hypersecretion Gr2,"500 mg, N = 14",0 n(%)
same,Salivary hypersecretion Gr3,"500 mg, N = 14",0 n(%)
same,Sensation of a foreign body Gr1,"500 mg, N = 14",1 n(%)
same,Sensation of a foreign body Gr2,"500 mg, N = 14",0 n(%)
same,Sensation of a foreign body Gr3,"500 mg, N = 14",0 n(%)
same,Vomiting Gr1,"500 mg, N = 14",1 n(%)
same,Vomiting Gr2,"500 mg, N = 14",5 (36) n(%)
same,Vomiting Gr3,"500 mg, N = 14",1 (7) n(%)
same,Abdominal discomfort Gr1,"750 mg, N = 8",1 (13) n(%)
same,Abdominal discomfort Gr2,"750 mg, N = 8",1 (13) n(%)
same,Abdominal discomfort Gr3,"750 mg, N = 8",0 n(%)
same,Abdominal distension Gr1,"750 mg, N = 8",1 (13) n(%)
same,Abdominal distension Gr2,"750 mg, N = 8",0 n(%)
same,Abdominal distension Gr3,"750 mg, N = 8",0 n(%)
same,Abdominal pain Gr1,"750 mg, N = 8",1 (13) n(%)
same,Abdominal pain Gr2,"750 mg, N = 8",0 n(%)
same,Abdominal pain Gr3,"750 mg, N = 8",0 n(%)
same,Diarrhoea Gr1,"750 mg, N = 8",0 n(%)
same,Diarrhoea Gr2,"750 mg, N = 8",0 n(%)
same,Diarrhoea Gr3,"750 mg, N = 8",0 n(%)
same,Dizziness Gr1,"750 mg, N = 8",1 (13) n(%)
same,Dizziness Gr2,"750 mg, N = 8",0 n(%)
same,Dizziness Gr3,"750 mg, N = 8",0 n(%)
same,Dyspepsia Gr1,"750 mg, N = 8",4 (50) n(%)
same,Dyspepsia Gr2,"750 mg, N = 8",0 n(%)
same,Dyspepsia Gr3,"750 mg, N = 8",0 n(%)
same,Dysphagia Gr1,"750 mg, N = 8",3 (38) n(%)
same,Dysphagia Gr2,"750 mg, N = 8",1 (13) n(%)
same,Dysphagia Gr3,"750 mg, N = 8",0 n(%)
same,Flatulance Gr1,"750 mg, N = 8",1 (13) n(%)
same,Flatulance Gr2,"750 mg, N = 8",0 n(%)
same,Flatulance Gr3,"750 mg, N = 8",0 n(%)
same,Headache Gr1,"750 mg, N = 8",3 (38) n(%)
same,Headache Gr2,"750 mg, N = 8",0 n(%)
same,Headache Gr3,"750 mg, N = 8",0 n(%)
same,Hiccups Gr1,"750 mg, N = 8",2 (25) n(%)
same,Hiccups Gr2,"750 mg, N = 8",0 n(%)
same,Hiccups Gr3,"750 mg, N = 8",0 n(%)
same,Hot flush Gr1,"750 mg, N = 8",2 (25) n(%)
same,Hot flush Gr2,"750 mg, N = 8",0 n(%)
same,Hot flush Gr3,"750 mg, N = 8",0 n(%)
same,Myalgia Gr1,"750 mg, N = 8",1 (13) n(%)
same,Myalgia Gr2,"750 mg, N = 8",0 n(%)
same,Myalgia Gr3,"750 mg, N = 8",0 n(%)
same,Nausea Gr1,"750 mg, N = 8",2 (25) n(%)
